# Test results: publication PMC4900628, “Critical Evaluation of P2X7 Receptor Antagonists in Selected Seizure Models” (PLoS ONE, 2016)
# Structures can show the parent of a compound that is named as a salt.
# Legend:
# mouse P2X7R = target: T1, mouse P2X7R (Mus musculus, UniProt Q9Z1M0); assay: fluorometric Ca2+ assay (ATP-induced [Ca2+]i response) in HEKmP2X7 cells; type: cell-based; details: fluo-4, 1 mM ATP, read-out: Potency IC50 ± SEM, Mouse P2X7R
# T1 construct: expressed in transfected cells
# T1 sequence (Q9Z1M0 1-595): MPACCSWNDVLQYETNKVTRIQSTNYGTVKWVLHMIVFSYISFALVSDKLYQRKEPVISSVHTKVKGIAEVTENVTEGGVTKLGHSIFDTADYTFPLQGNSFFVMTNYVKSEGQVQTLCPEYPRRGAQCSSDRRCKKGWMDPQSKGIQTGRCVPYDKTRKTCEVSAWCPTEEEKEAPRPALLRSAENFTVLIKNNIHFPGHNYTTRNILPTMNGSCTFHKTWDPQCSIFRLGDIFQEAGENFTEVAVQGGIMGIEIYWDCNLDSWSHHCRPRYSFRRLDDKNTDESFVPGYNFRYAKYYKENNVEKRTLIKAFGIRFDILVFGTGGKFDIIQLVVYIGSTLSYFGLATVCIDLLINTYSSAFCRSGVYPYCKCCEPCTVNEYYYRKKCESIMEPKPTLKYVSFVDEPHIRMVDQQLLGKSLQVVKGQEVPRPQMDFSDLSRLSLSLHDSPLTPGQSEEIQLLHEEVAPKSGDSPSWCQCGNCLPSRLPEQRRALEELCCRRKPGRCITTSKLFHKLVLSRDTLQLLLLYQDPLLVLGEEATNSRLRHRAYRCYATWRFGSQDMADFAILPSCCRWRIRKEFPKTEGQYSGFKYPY
# Description: (§1) Cells were grown in a humidified incubator at 37°C in an atmosphere supplemented with 5% CO2. […] HEK293mP2X7 were cultured in DMEM under similar conditions as described above, but containing 100 μg/ml zeocin (Invitrogen). […] Expression of the transgene was induced by supplementing the medium with 1 μg/ml tetracycline (Sigma-Aldrich, Taufkirchen, Germany) 24 h prior to the experiments. All fluorometric Ca^2+ assays in cell suspensions were performed in 384-microwell plates (Corning, No. 3655, Lowell, MA, USA) with a fluorescence-imaging microplate reader (POLARstar Omega, BMG Labtech, Offenburg, Germany) (for details, see [61, 68]). […] Microwell plates were repetitively scanned every 16 s in the fast scanning mode of the device. […] Data were normalized to the baseline values before ATP application (F/F0). […] ATP-solution was freshly prepared in Mg^2+-free HBS solution and adjusted to pH 7.4. Aliquots of stock solutions were stored at -20°C and freshly diluted with the appropriate HBS solution. […] Results are expressed as mean ± SEM. […] In the PTZ-T, the number of animals in the group with clonic seizures and the latency time were analysed using Fisher's exact probability test and the Mann-Whitney rank sum test, respectively. For multiple comparisons of the latency time a one-way ANOVA with the Holm-Sidak post hoc test was used. The influence of AFC on the plasma and brain concentrations of the antiepileptic drugs was statistical compared using the same procedure. In the PTZ-kindling model, the mean seizure stage within a group was calculated in relation to the number of PTZ-injections. Statistical comparison between vehicle- and compound-treated groups in this model was performed with two-way repeated measures ANOVA, followed by the Holm-Sidak post hoc test. […] In fully kindled rats, the calculated mean seizure stage within a group after vehicle- and compound-treatment were compared using a paired t-test. P < 0.05 was the accepted minimum level of significance.
# rat P2X7R = target: T2, rat P2X7R (Rattus norvegicus, UniProt Q64663); assay: fluorometric Ca2+ assay (ATP-induced [Ca2+]i response) in HEKrP2X7 cells; type: cell-based; details: HEKrP2X7 cells, fluo-4, 1 mM ATP; read-out: Potency IC50 ± SEM, Rat P2X7R
# T2 construct: expressed in transfected cells; host or cells: HEK293 Flp-In T-REx (HEKrP2X7), tetracycline-induced
# T2 sequence (Q64663 1-595): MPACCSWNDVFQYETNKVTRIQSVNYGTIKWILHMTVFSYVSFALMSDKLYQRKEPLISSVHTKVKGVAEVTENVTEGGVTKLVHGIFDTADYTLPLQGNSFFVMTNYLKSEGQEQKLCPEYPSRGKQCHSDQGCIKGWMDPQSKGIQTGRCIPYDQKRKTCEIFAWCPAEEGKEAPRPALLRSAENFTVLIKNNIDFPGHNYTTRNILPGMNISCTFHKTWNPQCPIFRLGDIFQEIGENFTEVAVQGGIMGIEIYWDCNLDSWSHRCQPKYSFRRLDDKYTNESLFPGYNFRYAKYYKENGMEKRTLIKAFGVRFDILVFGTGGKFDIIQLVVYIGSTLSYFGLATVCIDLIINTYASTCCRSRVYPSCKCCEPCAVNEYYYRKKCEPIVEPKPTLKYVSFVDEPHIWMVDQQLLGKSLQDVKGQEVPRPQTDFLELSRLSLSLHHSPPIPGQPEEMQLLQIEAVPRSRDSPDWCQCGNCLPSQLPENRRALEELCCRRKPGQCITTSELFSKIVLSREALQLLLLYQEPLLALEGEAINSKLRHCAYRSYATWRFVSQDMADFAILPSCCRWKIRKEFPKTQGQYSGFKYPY
# Description: as §1
# human P2X7R = target: T3, human P2X7R (Homo sapiens, UniProt Q99572); assay: fluorometric Ca2+ assay (ATP-induced [Ca2+]i response) in HEKhP2X7 cells; type: cell-based; details: fluo-4, 1 mM ATP, read-out: Potency IC50 ± SEM, Human P2X7R
# T3 construct: expressed in transfected cells
# T3 sequence (Q99572 1-595): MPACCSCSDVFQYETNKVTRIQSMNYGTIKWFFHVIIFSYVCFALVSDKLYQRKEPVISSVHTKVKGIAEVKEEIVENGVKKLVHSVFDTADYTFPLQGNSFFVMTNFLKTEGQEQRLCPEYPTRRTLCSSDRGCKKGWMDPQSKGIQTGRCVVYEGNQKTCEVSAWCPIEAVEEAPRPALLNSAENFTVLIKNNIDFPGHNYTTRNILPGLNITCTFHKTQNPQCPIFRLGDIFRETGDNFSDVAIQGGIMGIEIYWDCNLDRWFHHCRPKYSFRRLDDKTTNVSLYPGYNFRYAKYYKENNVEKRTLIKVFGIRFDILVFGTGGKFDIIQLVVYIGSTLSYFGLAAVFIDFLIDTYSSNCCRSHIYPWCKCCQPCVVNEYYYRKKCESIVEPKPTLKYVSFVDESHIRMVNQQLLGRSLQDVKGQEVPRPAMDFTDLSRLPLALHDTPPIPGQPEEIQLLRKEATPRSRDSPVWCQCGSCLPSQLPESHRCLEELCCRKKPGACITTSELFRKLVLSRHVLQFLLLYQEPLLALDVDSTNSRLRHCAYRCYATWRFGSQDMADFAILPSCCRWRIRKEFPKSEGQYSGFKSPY
# Description: as §1
# [1] = tested on: PTZ-induced seizures in fully PTZ-kindled rats; assay: PTZ-induced seizures in fully kindled rats; type: in vivo; details: fully kindled rats; 100 mg/kg i.p.; pre-drug (vehicle) value 4.0
# Text: Results were expressed as mean seizure stages of a tested group in which the seizure behaviour after vehicle treatment (vehicle seizure stage) and after compound treatment (compound seizure stage), examined 3-4 days later, was matched. For comparison, the effectiveness of two antiepileptic drugs (carbamazepine and valproate) was also investigated. […] Chemicals, Toronto, Canada) was slowly added. The pH was adjusted with 1N NaOH (similar amount of NaOH as HCl), all with continuous stirring. […] The drug solutions or suspensions were prepared immediately before use; all doses refer to the salts. Animals in the control group received equivalent volumes of the vehicle (in mice always 10 ml/kg, in rats 1 ml/kg [JNJ], 3 ml/kg [AFC] or 4 ml/kg [BBG, TIIAS], depending on the solubility of the different compounds). Doses and peak time effects were selected on the basis of effective doses from corresponding in vivo studies in the literature: BBG (e.g.), tanshinone IIA (e.g.) and from manufacturer's experimental data: AFC, JNJ (see, [80]). Data were analysed using SigmaPlot (vers. 12.0, Systat Software, Erkrath, Germany) and SPSS (IBM SPSS Statistics 20, […], Germany), respectively. Results are expressed as mean ± SEM. […] In the MES-T, the current intensity inducing tonic hindlimb extensions in 50% of the mice (CC50 values with confidence limits for 95% probability) and the statistical significance was calculated using Probit analysis (SPSS). […] In the PTZ-T, the number of animals in the group with clonic seizures and the latency time were analysed using Fisher's exact probability test and the Mann-Whitney rank sum test, respectively. For multiple comparisons of the latency time a one-way ANOVA with the Holm-Sidak post hoc test was used. The influence of AFC on the plasma and brain concentrations of the antiepileptic drugs was statistical compared using the same procedure. In the PTZ-kindling model, the mean seizure stage within a group was calculated in relation to the number of PTZ-injections. Statistical comparison between vehicle- and compound-treated groups in this model was performed with two-way repeated measures ANOVA, followed by the Holm-Sidak post hoc test. The mean number of PTZ-injections needed to produce the first generalized seizure (≥ stage 3 convulsions) in the vehicle- versus compound-treated groups was statistically compared using a Mann-Whitney rank sum test. In fully kindled rats, the calculated mean seizure stage within a group after vehicle- and compound-treatment were compared using a paired t-test. P < 0.05 was the accepted minimum level of significance.
IC50 (mouse P2X7R) [nM],IC50 (rat P2X7R) [nM],IC50 (human P2X7R) [nM],Compound,"mean seizure stage, post-drug [1]"
120 ± 5,20 ± 2,,"O=C(CC12CC3CC(CC(C3)C1)C2)Nc1cccc2nc(NCCNCCO)ccc12 [AZ-10606120, N-[2-[[2-[(2-hydroxyethyl)amino]ethyl]amino]-5-quinolinyl]-2-tricyclo[3.3.1.13,7]dec-1-ylacetamide dihydrochloride]",
280 ± 20,220 ± 10,70 ± 9,"Clc1cccc(-c2nnnn2Cc2cccnc2)c1Cl [A-438079, 3-[[5-(2,3-dichlorophenyl)-1H-tetrazol-1yl]methyl]pyridine hydrochloride hydrate]",
,,,"CCCC(CCC)C(=O)O [Ca-valproate, Ca-valproate dihydrate]",1.1
